# What was measured:
# Cytochrome P450 2C9 = Cytochrome P450 2C9 (Homo sapiens, UniProt P11712); conditions: bti-tn-5b1-4; also: in other assays of this panel Not Active means under 50% inhibition at 10 µM
# [1] = DRUGMATRIX: Calcium Channel Type L, Phenylalkylamine radioligand binding (ligand: [3H] (-)-Desmethoxyverapamil (D-888)); type: cell membranes, Rattus norvegicus, Wistar, Brain, Membrane; conditions: Not Active = under 50% inhibition at 10 µM
# Cytochrome P450 3A4 = Cytochrome P450 3A4 (Homo sapiens, UniProt P08684); conditions: bti-tn-5b1-4; also: in other assays of this panel Not Active means under 50% inhibition at 10 µM
# Adenosine receptor A3 = target: T1, Adenosine receptor A3 (Homo sapiens, UniProt P0DMS8); type: cell membranes, CHO-K1, Membrane; conditions: cho-k1;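 also: radioligand binding assay with AB-MECA serving as the labeled ligand; in other assays of this panel Not Active means under 50% inhibition at 10 µM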
# T1 sequence (P0DMS8 whole entry): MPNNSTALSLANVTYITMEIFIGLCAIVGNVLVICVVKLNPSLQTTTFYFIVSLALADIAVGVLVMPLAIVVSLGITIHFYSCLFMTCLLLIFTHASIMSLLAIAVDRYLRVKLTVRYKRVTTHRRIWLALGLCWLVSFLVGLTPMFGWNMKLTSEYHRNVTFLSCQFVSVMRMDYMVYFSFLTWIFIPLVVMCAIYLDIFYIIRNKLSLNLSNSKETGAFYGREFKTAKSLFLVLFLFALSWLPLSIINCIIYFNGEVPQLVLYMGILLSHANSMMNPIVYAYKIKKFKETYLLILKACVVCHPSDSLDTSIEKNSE
# [2] = target: Vascular endothelial growth factor receptor 1 (Homo sapiens, UniProt P17948); type: cell-based; conditions: huvec; also: in other assays of this panel Not Active means under 50% inhibition at 10 µM
# [3] = target: Platelet-activating factor receptor (Homo sapiens, UniProt P25105); type: tissue-based; also: in other assays of this panel Not Active means under 50% inhibition at 10 µM
# [4] = target: T2, Polyunsaturated fatty acid lipoxygenase ALOX15 (Oryctolagus cuniculus, UniProt P12530); experiment: biochemical; type: tissue-based, Reticulocytes
# T2 sequence (P12530 whole entry): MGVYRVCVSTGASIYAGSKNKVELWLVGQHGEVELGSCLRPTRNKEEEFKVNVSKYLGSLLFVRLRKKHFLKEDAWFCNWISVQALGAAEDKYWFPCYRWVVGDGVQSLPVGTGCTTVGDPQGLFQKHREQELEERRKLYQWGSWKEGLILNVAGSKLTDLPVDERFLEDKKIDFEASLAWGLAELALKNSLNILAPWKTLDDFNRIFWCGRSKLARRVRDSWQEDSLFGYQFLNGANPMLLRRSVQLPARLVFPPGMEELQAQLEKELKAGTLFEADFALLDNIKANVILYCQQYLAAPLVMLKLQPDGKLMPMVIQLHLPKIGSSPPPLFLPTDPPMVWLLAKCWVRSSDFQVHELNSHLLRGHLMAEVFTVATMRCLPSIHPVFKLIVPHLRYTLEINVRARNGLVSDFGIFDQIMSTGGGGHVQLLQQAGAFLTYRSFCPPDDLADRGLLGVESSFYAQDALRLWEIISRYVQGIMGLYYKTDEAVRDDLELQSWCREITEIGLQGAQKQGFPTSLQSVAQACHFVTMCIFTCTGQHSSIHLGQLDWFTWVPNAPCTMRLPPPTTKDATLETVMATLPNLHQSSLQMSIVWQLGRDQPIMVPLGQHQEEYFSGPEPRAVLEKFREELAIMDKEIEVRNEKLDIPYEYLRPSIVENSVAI
# [5] = target: Receptor tyrosine-protein kinase erbB-2 (Homo sapiens, UniProt P04626); experiment: biochemical; type: cell-based, Insect cells; conditions: insect cells
# [6] = target: T3, Neuropeptide Y receptor type 2 (Homo sapiens, UniProt P49146); type: cell membranes, Membrane; conditions: kan-ts; also: in other assays of this panel Not Active means under 50% inhibition at 10 µM
# T3 sequence (P49146 whole entry): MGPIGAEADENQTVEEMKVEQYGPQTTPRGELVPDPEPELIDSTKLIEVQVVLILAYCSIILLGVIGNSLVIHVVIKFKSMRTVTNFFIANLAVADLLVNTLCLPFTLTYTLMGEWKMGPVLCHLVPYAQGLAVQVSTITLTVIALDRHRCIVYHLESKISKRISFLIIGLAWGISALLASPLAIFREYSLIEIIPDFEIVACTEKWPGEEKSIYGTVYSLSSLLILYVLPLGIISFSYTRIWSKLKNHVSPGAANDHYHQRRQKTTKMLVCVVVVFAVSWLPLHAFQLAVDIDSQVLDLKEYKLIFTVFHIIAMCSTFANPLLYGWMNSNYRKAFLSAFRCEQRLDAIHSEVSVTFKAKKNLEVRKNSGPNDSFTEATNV
# [7] = DRUGMATRIX: Atrial Natriuretic Factor (ANF) radioligand binding (ligand: [125I] ANF (rat)); type: cell membranes, Cavia porcellus, Dunkin-Hartley, Adrenal gland, Membrane; conditions: Not Active = under 50% inhibition at 10 µM
# Cytochrome P450 2C9, sequence (P11712 whole entry): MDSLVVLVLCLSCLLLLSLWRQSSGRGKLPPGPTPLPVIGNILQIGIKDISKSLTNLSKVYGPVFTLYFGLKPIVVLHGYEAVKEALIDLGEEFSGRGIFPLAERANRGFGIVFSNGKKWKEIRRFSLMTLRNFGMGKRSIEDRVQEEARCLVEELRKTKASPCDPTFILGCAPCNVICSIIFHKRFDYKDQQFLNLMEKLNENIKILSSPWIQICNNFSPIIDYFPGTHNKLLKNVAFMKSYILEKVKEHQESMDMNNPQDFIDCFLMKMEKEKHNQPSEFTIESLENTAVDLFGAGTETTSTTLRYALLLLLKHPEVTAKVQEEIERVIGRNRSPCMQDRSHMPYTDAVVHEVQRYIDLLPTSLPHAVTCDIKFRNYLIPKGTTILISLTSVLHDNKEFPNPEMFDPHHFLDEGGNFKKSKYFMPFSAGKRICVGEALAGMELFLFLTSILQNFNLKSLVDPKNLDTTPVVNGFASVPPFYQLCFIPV
# Platelet-activating factor receptor, sequence (P25105 whole entry): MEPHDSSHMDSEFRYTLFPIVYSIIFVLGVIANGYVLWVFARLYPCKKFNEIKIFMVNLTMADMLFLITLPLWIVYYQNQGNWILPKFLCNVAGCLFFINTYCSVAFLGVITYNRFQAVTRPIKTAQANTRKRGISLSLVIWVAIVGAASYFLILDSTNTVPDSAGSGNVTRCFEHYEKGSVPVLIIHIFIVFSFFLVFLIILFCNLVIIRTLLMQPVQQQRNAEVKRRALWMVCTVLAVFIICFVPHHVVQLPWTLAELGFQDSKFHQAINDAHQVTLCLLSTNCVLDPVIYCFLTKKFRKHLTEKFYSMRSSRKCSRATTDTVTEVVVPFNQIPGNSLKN
# Receptor tyrosine-protein kinase erbB-2, sequence (P04626 whole entry): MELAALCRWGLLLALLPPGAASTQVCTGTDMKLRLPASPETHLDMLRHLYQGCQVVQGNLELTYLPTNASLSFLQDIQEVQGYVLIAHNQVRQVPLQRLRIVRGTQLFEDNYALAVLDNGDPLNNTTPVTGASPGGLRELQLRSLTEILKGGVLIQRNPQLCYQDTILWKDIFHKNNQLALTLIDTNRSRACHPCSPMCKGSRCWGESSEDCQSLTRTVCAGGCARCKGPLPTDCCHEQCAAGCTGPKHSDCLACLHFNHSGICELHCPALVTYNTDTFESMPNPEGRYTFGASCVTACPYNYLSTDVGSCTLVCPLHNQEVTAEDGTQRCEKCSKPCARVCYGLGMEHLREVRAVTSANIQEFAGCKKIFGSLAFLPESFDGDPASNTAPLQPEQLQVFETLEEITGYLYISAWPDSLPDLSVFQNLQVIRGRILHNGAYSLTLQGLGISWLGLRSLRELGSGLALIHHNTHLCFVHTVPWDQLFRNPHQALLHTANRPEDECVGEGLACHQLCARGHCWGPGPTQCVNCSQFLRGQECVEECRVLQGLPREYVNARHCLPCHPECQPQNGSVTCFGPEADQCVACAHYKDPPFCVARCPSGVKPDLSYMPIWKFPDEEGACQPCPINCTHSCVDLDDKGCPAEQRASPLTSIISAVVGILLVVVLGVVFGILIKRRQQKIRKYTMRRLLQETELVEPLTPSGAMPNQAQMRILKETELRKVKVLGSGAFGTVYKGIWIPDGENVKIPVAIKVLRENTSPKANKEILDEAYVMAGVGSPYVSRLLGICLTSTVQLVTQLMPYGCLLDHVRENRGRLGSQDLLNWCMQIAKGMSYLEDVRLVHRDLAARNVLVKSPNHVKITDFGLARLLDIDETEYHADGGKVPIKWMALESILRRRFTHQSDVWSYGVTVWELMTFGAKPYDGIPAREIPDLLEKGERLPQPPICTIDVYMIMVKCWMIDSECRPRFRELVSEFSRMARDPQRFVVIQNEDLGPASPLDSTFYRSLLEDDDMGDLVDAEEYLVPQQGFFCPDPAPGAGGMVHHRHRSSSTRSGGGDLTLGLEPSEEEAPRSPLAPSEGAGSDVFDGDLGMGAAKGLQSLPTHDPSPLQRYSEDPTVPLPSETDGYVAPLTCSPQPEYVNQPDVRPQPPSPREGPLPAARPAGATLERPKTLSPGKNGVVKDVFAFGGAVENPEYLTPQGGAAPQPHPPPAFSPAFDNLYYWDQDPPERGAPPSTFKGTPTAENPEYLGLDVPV
# Cytochrome P450 3A4, sequence (P08684 whole entry): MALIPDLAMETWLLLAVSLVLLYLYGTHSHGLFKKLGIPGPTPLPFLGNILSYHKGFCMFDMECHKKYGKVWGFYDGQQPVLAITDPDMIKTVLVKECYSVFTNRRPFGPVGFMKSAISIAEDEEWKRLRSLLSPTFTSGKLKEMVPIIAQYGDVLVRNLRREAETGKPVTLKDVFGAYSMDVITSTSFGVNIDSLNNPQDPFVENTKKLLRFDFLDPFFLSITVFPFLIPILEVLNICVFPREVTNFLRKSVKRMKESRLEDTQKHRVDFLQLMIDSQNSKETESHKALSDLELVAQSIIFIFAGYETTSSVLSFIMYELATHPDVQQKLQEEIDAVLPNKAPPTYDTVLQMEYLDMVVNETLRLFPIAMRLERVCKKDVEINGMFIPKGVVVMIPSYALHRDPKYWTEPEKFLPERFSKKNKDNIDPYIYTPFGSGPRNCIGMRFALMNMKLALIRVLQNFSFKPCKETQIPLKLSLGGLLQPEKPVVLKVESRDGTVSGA
# Vascular endothelial growth factor receptor 1, sequence (P17948 whole entry): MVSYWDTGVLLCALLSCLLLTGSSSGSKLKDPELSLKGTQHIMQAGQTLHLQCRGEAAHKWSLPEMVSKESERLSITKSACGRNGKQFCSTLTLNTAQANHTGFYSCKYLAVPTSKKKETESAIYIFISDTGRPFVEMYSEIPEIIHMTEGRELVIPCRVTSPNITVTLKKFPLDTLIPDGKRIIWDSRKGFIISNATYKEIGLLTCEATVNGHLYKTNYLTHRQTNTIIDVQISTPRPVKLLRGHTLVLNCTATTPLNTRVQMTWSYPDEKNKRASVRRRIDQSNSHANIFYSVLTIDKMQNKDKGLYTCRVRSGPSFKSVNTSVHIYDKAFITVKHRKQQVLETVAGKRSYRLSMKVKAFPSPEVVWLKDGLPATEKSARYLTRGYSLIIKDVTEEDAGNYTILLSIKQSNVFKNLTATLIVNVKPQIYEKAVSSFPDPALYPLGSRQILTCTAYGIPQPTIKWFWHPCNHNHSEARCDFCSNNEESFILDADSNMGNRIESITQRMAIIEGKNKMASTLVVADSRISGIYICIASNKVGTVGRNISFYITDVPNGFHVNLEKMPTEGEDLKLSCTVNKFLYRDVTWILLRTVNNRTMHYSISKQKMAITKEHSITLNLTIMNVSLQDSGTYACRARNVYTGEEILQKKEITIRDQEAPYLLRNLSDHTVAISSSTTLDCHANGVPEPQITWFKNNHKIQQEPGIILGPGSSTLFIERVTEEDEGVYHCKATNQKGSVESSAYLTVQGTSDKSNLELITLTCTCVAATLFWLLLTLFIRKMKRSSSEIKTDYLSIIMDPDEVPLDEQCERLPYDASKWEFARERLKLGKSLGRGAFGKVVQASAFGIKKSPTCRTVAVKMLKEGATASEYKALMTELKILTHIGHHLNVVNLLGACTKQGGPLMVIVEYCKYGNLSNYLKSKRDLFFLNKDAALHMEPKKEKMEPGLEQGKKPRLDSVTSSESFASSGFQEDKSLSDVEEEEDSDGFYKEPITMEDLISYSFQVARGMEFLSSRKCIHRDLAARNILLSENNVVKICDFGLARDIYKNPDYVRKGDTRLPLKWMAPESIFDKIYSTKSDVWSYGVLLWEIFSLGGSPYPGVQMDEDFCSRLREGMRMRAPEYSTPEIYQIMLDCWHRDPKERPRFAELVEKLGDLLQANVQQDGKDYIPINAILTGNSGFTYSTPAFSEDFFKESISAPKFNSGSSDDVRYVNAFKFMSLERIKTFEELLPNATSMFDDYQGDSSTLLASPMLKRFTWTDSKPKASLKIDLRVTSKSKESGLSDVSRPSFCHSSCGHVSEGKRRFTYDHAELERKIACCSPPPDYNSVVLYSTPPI
SMILES,IC50 (Cytochrome P450 2C9),Ki (Cytochrome P450 2C9),IC50 [1],Ki [1],IC50 (Cytochrome P450 3A4),Ki (Cytochrome P450 3A4),IC50 (Adenosine receptor A3),IC50 [2],IC50 [3],IC50 ([4]; read-out: IC50) [µM],IC50 [5],IC50 [6],IC50 [7],Ki [7],IC50 ([4]; reticulocytes)
CC[C@]1(O)C[C@@H]2CN(CCc3c([nH]c4ccccc34)[C@@](C(=O)OC)(c3cc4c(cc3OC)N(C)[C@H]3[C@@](O)(C(=O)OC)[C@H](OC(C)=O)[C@]5(CC)C=CCN6CC[C@]43[C@@H]65)C2)C1 [VINBLASTINE],Not Active,Not Active,Not Active,Not Active,Not Active,Not Active,Not Active,Not Active,Not Active,5.04,Not Active,Not Active,Not Active,Not Active,
CC(=O)CC(c1ccccc1)c1c(O)c2ccccc2oc1=O (stereo unspecified) [WARFARIN],Not Active,Not Active,Not Active,Not Active,Not Active,Not Active,Not Active,Not Active,Not Active,,Not Active,Not Active,Not Active,Not Active,Not Active
C[C@@H](N)[C@H]1CC[C@H](C(=O)Nc2ccncc2)CC1 [Y-27632],Not Active,Not Active,Not Active,Not Active,Not Active,Not Active,Not Active,Not Active,Not Active,,Not Active,Not Active,Not Active,Not Active,Not Active
[Cl-].[Cl-].[Zn+2] [ZINC CHLORIDE],Not Active,Not Active,Not Active,Not Active,Not Active,Not Active,Not Active,Not Active,Not Active,,Not Active,Not Active,Not Active,Not Active,Not Active
